Laboratory results from ChEMBL document CHEMBL1806479, “Structure-activity study on a series of α-glutamic acid scaffold based compounds as new ADAMTS inhibitors” (Bioorg Med Chem Lett, 2011).

Experiments:
[1] = biological target: T1, A disintegrin and metalloproteinase with thrombospondin motifs 4 (Homo sapiens) (UniProt O75173); test: Inhibition of human recombinant ADAMTS4 at 1 uM by fluorimetric assay
T1 sequence (whole entry): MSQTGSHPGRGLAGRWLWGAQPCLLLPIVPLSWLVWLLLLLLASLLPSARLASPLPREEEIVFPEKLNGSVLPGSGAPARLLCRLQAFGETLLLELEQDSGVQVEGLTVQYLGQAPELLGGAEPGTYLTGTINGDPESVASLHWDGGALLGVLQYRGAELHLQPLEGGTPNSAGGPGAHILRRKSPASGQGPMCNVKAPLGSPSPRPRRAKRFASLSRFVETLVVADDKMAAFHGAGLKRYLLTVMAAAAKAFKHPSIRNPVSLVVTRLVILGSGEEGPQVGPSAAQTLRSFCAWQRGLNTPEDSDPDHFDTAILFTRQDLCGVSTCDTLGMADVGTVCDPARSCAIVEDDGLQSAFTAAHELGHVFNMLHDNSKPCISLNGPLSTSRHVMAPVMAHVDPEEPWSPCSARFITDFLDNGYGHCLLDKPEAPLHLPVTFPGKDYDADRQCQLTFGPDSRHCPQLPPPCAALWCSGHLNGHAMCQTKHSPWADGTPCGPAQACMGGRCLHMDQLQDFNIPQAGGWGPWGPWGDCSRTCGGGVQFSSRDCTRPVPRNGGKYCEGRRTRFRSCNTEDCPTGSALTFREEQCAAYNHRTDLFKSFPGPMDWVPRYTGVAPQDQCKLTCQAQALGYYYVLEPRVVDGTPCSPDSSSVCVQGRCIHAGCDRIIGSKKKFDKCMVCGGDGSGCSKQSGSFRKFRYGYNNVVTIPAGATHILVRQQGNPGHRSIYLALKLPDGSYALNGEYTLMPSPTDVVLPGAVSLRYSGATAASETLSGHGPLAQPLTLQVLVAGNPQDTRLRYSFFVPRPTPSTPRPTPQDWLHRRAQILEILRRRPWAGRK

[2] = biological target: T1, A disintegrin and metalloproteinase with thrombospondin motifs 4 (Homo sapiens); test: Inhibition of human recombinant ADAMTS4 at 10 uM by fluorimetric assay
[3] = biological target: T2, A disintegrin and metalloproteinase with thrombospondin motifs 5 (Homo sapiens, UniProt Q9UNA0); test: Inhibition of human recombinant ADAMTS5 by fluorimetric assay
T2 sequence (Q9UNA0 whole entry): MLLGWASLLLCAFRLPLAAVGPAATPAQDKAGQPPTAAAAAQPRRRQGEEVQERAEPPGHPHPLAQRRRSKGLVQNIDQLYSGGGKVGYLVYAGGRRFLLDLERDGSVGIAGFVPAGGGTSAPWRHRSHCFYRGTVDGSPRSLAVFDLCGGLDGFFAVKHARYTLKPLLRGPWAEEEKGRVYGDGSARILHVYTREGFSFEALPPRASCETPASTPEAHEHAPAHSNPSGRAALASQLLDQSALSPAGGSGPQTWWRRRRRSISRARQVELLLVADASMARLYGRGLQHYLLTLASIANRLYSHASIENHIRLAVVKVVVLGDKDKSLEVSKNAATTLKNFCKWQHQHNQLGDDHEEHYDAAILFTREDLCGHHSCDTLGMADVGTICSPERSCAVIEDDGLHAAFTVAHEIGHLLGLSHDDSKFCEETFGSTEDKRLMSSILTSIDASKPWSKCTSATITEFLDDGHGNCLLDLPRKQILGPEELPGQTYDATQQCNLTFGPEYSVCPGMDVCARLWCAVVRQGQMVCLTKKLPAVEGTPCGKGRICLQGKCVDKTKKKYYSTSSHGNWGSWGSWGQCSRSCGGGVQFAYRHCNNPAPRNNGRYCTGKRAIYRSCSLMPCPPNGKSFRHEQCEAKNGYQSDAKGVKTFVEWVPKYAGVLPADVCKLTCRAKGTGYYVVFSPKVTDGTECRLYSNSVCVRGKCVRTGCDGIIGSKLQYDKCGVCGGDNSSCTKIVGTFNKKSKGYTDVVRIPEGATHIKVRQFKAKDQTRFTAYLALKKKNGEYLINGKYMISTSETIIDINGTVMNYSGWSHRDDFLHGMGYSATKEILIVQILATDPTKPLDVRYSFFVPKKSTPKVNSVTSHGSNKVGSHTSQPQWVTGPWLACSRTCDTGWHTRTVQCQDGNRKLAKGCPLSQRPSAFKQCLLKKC

[4] = biological target: T3, A disintegrin and metalloproteinase with thrombospondin motifs 4 (Homo sapiens, UniProt O75173); test: (§1) Inhibition of human recombinant ADAMTS4 by fluorimetric assay
T3 sequence (O75173 whole entry): T1 sequence (whole entry)

[5] = biological target: T1, A disintegrin and metalloproteinase with thrombospondin motifs 4 (Homo sapiens); test: as §1
[6] = Inhibition of aggrecanase

SMILES	inhibition [1] [%]	inhibition [2] [%]	IC50 [3] [µM]	IC50 [4] [µM]	inhibition [5]	IC50 [6] [µM]
O=C(O)CC[C@H](NC(=O)c1ccc(-c2ccncc2)cc1)c1nnc(CCc2ccccc2)o1	8	18				
O=C(O)CC[C@H](NC(=O)c1ccc(-c2ccccc2)cc1)c1nnc(C2(c3ccccc3)CC2)o1	5	20				
CC(C)(Cc1nnc([C@H](CCC(=O)O)NC(=O)c2ccc(-c3ccccc3)cc2)o1)c1ccccc1	19	45				
CC(C)(Cc1ccccc1)c1nnc([C@H](CCC(=O)O)NC(=O)c2ccc(-c3ccccc3)cc2)o1	23	47				
O=C(O)CC[C@H](NC(=O)c1ccc(-c2ccccc2)cc1)c1nnc(Cc2ccccc2)o1	17	26				
O=C(C[C@@H](Cc1ccc(-c2ccc3c(c2)OCO3)cc1)C(=O)N[C@@H]1c2ccccc2C[C@@H]1O)NO						0.0015
CC(C)(c1ccccc1)c1nnc([C@H](CCC(=O)O)NC(=O)c2ccc(-c3ccccc3)cc2)o1	-5	5				

Other lines, results leading:

inhibition [1] [%]	inhibition [2] [%]	IC50 [3] [µM]	IC50 [4] [µM]	inhibition [5]	IC50 [6] [µM]	SMILES
22	51					O=C(O)CC[C@H](NC(=O)c1ccc(-c2ccccc2)cc1)c1nnc(CCc2ccc(O)cc2)o1
30	59	57.3	9.7	Dose-dependent effect		O=C(O)CC[C@H](NC(=O)c1ccc(-c2ccccc2)cc1)c1nnc(CCc2ccccc2)o1
12	39					O=C(O)CC[C@H](NC(=O)c1ccc(-c2cccnc2)cc1)c1nnc(CCc2ccccc2)o1
5	21					COc1ccc(Cc2nnc([C@H](CCC(=O)O)NC(=O)c3ccc(-c4ccccc4)cc3)o2)cc1
47	86	0.8	1.2	Dose-dependent effect		COc1cc(Cc2nnc([C@H](CCC(=O)O)NC(=O)c3ccc(-c4ccccc4)cc3)o2)cc(OC)c1OC
27	56					Cc1ccc(CCc2nnc([C@H](CCC(=O)O)NC(=O)c3ccc(-c4ccccc4)cc3)o2)cc1
35	74	4.3	3.3	Dose-dependent effect		COc1cc(CCc2nnc([C@H](CCC(=O)O)NC(=O)c3ccc(-c4ccccc4)cc3)o2)cc(OC)c1OC
35	66	24.3	4.9	Dose-dependent effect		COc1ccc(CCc2nnc([C@H](CCC(=O)O)NC(=O)c3ccc(-c4ccccc4)cc3)o2)cc1
